The subject of assay [1] is Mutants resistant to proteasome inhibitors. Conditions: versus corresponding wild-type strains; cited from earlier work. The source says:
(§1) Mutations in Kelch13 (K13) are associated with ART resistance at the ring stage in laboratory settings[20]–[22]. […] Even a strain with doub ...

Assay [2] relates to P. falciparum 3D7A. Conditions: compared with pyrimethamine; cited from earlier work. The source says: We previously reported two classes of non-covalent Pf20S selective inhibitors, one with a fast-on/off kinetics, represented by TDI-4258[19], and one with a time-dependent inhibition kinetics, represented by TDI-8304 (Fig. 1a)[16]. […] To investigate if inhibitors of the same target with diffe ...

For assay [3], the system named is Cam3.I^Rev. The experiment in a line: Ring-stage survival assay, revertant. Format: cell-based, Plasmodium falciparum. Conditions: 700 nM, 6 h. The procedure:
(§2) Ring-stage survival assays (RSA) were performed as reported. Parasite cultures, artemisinin resistant Cam3.I^R539T and the genetically engineered artemisinin sensitive revertant Cam3.I^rev, were synchronized with 5% sorbitol and a Percoll-sorbitol gradient to obtain tightly synchronized late-stage parasites. After isolation, the tightly synchronized parasites were then allowed to reinvade fresh red blood cells for 3 h and the microscopically confirmed ring stage parasite cultures were again subjected to 5% sorbitol to obtain 0–3 h rings. The isolated ring stage cultures were then plated into a 96-well plate at 0.5% parasitemia and treated with DHA and TDI-8304 at 700 nM at 37 °C in standard gas conditions for 6 h. The plates were then spun and washed to remove compounds and replenished with fresh medium without compounds. Parasite growth was assessed 66 h later using flow cytometry (Becton-Dickson flow cytometer) and nucleic acid stains HO (Hoechst 33342) and TO (thiazole orange).

For assay [4], the system named is Cam3.I^R539T. In words: Ring-stage survival assay, ART-resistant. Conditions: 700 nM, 6 h. Format: cell-based, Plasmodium falciparum. The procedure:
as §2

Assay [5] has as its system Dd2. The experiment in a line: Parasite growth inhibition assay, Dd2. Conditions: Plasmodium falciparum. Format: cell-based. As for the experimental part: (§3) Parasite growth inhibition assays for P. falciparum wild type and mutants were performed as reported[19],[32].
Assay [6] deals with DR1. In words: Parasite growth inhibition assay, DR1. Format: cell-based. Conditions: Plasmodium falciparum, read-out: EC50 (Fig. 1e). The procedure: as §3
The subject of assay [7] is DR2. The experiment in a line: Parasite growth inhibition assay, DR2. Format: cell-based. Conditions: Plasmodium falciparum, read-out: EC50 (Fig. 1e). As for the experimental part:
as §3

Assay [8] concerns DR4. The experiment in a line: Parasite growth inhibition assay, DR4. Format: cell-based. Conditions: Plasmodium falciparum, Exp 2; read-out: EC50 (Fig. 1e). As for the experimental part: as §3
Assay [9] has as its system DR1/2/4. The experiment in a line: Parasite growth inhibition assay, DHA-selected clones. Format: cell-based, Plasmodium falciparum. As for the experimental part:
as §3

Assay [10] concerns strain with double mutations in both the proteasome and K13. Conditions: versus wild-type strain; cited from earlier work.
Source text: as §1

Read-outs that look alike come from different tables or passages of the source.

In the case of `C[C@@H]1CC[C@H]2[C@@H](C)C(=O)O[C@@H]3O[C@@]4(C)CC[C@@H]1[C@]32OO4` [ART, artemisinin], the “susceptibility to ART” value in assay [1] is “more susceptible to ART than the corresponding wild-type strains”.

As to `Cc1cc(C(=O)N[C@@H](CC(=O)NC(C)(C)C)C(=O)NCCNC(=O)c2cccc(-n3cccn3)c2)no1` [TDI-4258], the “in vitro parasite reduction ratio” value in [2] is “modest in vitro parasite reduction ratio similar to that of the antimalarial drug pyrimethamine”.

With `C[C@H]1[C@@H](O)O[C@@H]2O[C@@]3(C)CC[C@H]4[C@H](C)CC[C@@H]1[C@@]24OO3` [DHA, dihydroartemisinin], the “ring-stage survival result in words, K13 Rev” value in assay [3] (0–3 h rings, readout 66 h later) is on record as “highly susceptible”. In addition, the “ring-stage survival (Fig. 1c)” value is listed as 1.86 in assay [3] (Exp 1); -0.27 in assay [3] (Exp 2); 3.91 in [3] (Exp 3); 18.01 in [4] (Exp 1); 10.3 in [4] (Exp 2); 6.84 in assay [4] (Exp 3). Also, the “ring-stage survival result in words, K13 R539T” value in [4] (0–3 h rings, readout 66 h later, means of three independent experiments, paired t test) is “highly resistant”. Besides, the EC50 in assay [5] (DD2, read-out: EC50 (Fig. 1e), Exp 1) stood at 1 nM; in assay [5] (DD2, read-out: EC50 (Fig. 1e), Exp 2), 0.9 nM; in [6] (Exp 1), 12.2 nM; in assay [6] (Exp 2), 7.1 nM; in assay [7] (Exp 1), 10.7 nM; in assay [7] (Exp 2) it was 8.7 nM. Also, the EC50 in assay [8] was 8.1 nM. For the same compound, in assay [9] (DHA-selected clones versus Dd2), the “EC50 shift in the erythrocyte assays” value was ~ 10 fold. Further, the “sensitivity of DR1/2/4 in words” value in assay [9] (trophozoite stage, versus Dd2) is recorded as “highly resistant”. Besides, the “susceptibility to DHA” value in [10] is reported as “more susceptible to DHA than the wild-type strain”.

The record behind these values is article PMC10721928, “Structures revealing mechanisms of resistance and collateral sensitivity of Plasmodium falciparum to proteasome inhibitors” (Nature Communications, 2023).
